In US5188642A, “Glyphosate-resistant plants” (priority 1990, dated 1993):

Experiments:
EPSPS = EPSPS (Escherichia coli, UniProt P0A6D3); type: biochemical, E. coli
Text: This mutant bacterium was designated E. coli 11303 SM-1. The aroA gene encoding EPSPS from this mutant bacterium was isolated as follows.
Isolation of aroA gene encoding EPSPS from E. coli 11303 SM-1: The DNA from this bacterium was isolated (Marmur, J. (1961) J. Mol. Biol. 3:208-218). […] This fragment was cloned into the vector pKC7 (Rao, R. N. & Rogers, S. G. (1979), Gene, F. Jul. 7, 1982) and the resulting plasmid was used for trans-formation of E. coli. […] This clone was designated pMON9538. […] This clone was designated pMON9540. […] The E. coli mutant EPSPS gene was incorporated into plant transformation vector with and without a chloroplast transit peptide in the following manner.

soybean callus = test: Soybean callus growth on MS medium with glyphosate; type: cell-based, Glycine canescens
Method: Sterile hypocotyl pieces of Glycine canescens, a type of soybean, were infected with the A. tumefaciens strain containing the chimeric EPSPS gene as described in Example 2. Nurse culture plates were made which contained a medium of 10% of the normal level of MS salts (GIBCO), B5 vitamins, 3 g/l sucrose, 2 mg/l napthalene acetic acid, 1 mg/l benzyladenine, and 0.5 mM arginine. The pH was adjusted to 5.7 before autoclaving.
The infected soybean hypocotyls were incubated at 26° C. for two days and transferred to a similar medium (except that the MS salts were not diluted) and additionally containing 500 mg/l carbenicillin, 100 mg/l cefotaxime and 100 mg/l kanamycin. Under these conditions, only transformed soybean callus was able to grow.
Control tissue was produced using A. tumefaciens cells containing the helper Ti plasmid pTiT37-SE and a plant transformation vector pMON200. See Fraley et al, Biotechnology Vol. 3, 1985, described herein. The co-integrate pTiT37-SE contained a T-DNA region with a NOS/NPTII/NOS kanamycin resistance gene and a NOS scorable marker gene identical to pMON200, but without the CaMV 35S/EPSPS/NOS gene.
After 14-17 days, soybean callus transformed with either the vector alone (pMON200 plasmid) or with the vector containing a chimeric EPSPS gene was transferred to petri dishes containing MS medium and 0, 0.5 mM or 1.0 mM glyphosate.
Within 18-20 days after transfer to the media containing glyphosate, actively growing callus tissue appeared in all dishes containing no glyphosate.

transgenic canola lines = test: Glyphosate spray test, reproductive scores of transgenic canola (Example 21); type: in vivo
Text: Transgenic plants containing the Arabidopsis EPSP synthase gene containing a single glycine to alamine mutation at […] 101 driven by either the FMV promoter or the CaMVe35S promoter were obtained and analyzed for resistance to glyphosate. The transgenic plants containing the Arabidopsis EPSP synthase gene (as described above) directed by the FMV promoter contained pMON996, FIG. 12 and FIG. 13, while those plants containing the enhanced CaMVe35S promoter contained pMON899. These transgenic plants were planted and the seed from the Ro plants harvested, threshed and dried before planting for a glyphosate spray test. The progeny were planted in 4-inch square pots of Metro 350 and three types of slow release fertilizers. A goal of twenty seedlings from each Ro plant is desirable for testing. Germination frequency is usually high but overplanting ensures that twenty seedlings are present. The plants were thinned down by selecting the twenty most vigorous and erect seedlings seven to ten days after planting. A negative control (non-transformed, "Westar" variety) was planted at the same time to maintain quality and display the results. The plants were maintained and grown in a greenhouse environment. A sixteen-hour photoperiod and a temperature of 21° C. (day) and 15° C. (night) was maintained. […]

petunia leaf disks = test: Callus growth from petunia leaf disks on MS media with glyphosate; type: cell-based
Method: Leaf disks with diameters of 6 mm (1/4 inch) were taken from surface-sterilized petunia leaves. They were cultivated on MS104 agar medium for 2 days to promote partial cell wall formation at the wound surfaces. They were then submerged in a culture of A. tumefaciens cells containing both pMON546 and GV3111-SE which had been grown overnight in Luria broth at 28° C., and shaken gently. The cells were removed from the bacterial suspension, blotted dry, and incubated upside down on filter paper placed over "nurse" cultures of tobacco cells, as described in Horsch 1981. Afer 2 or 3 days, the disks were transferred to petri dishes containing MS media with 500 μg/ml carbenicillin and 0, 0.1, 0.25, or 0.5 mM glyphosate (sodium salt), with no nurse cultures.
Control tissue was created using A. tumefaciens cells containing the helper plasmid pGV3111-SE and a different plant transformation vector, pMON505, which contained a T-DNA region with a NOS/NPTII/NOS kanamycin resistance gene and a NOS selectable marker gene identical to pMON546, but without the CaMV/EPSPS gene.
Within 10 days after transfer to the media containing glyphosate, actively growing callus tissue appeared on the periphery of all disks on the control plate containing no glyphosate. […] This confirms that the CaMV/EPSPS gene conferred glyphosate resistance upon the transformed cells.

Chain of EPSPS (P0A6D3 whole entry): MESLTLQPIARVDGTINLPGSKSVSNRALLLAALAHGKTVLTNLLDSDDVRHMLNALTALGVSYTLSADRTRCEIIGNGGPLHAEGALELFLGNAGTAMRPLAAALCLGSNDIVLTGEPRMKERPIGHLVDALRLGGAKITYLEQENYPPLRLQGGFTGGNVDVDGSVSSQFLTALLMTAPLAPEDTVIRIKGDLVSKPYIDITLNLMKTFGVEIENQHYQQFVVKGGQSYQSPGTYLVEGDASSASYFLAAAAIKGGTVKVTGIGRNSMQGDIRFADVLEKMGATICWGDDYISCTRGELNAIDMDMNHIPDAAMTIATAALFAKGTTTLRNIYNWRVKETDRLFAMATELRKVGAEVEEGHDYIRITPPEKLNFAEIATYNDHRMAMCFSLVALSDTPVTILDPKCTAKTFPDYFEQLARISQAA

With `O=C(O)CNCP(=O)(O)O` [glyphosate, N-phosphonomethylglycine] the “glyphosate sensitivity of EPSPS” value (EPSPS; EPSPS of mutant cells (E. coli 11303 SM-1) compared with wild type E. coli) was “significantly different from that of wild type”, the “glyphosate tolerance of EPSPS” value (EPSPS; EPSPS produced by hybrid K-12/11303 SM-1 aroA gene (pMON9540)) was “retained its glyphosate tolerance” and the callus growth (soybean callus; callus colonies containing the chimeric EPSPS gene, 0.5 mM glyphosate, 18-20 days) was “showed definite growth”. The callus growth (soybean callus; control callus (pMON200 vector alone), 0.5 mM glyphosate, 18-20 days) was “little growth in the dishes containing control callus”, the callus growth (soybean callus; control tissues (pMON200), 1.0 mM glyphosate) was “no callus growth from the control tissues” and the callus growth (soybean callus; transformed callus containing the chimeric EPSPS gene, 1.0 mM glyphosate) was “some growth of the transformed callus”. The “reproductive scores (scale 0-10)” value (transgenic canola lines; 0.28 Kg/ha, 28 days after spraying, three of the seven lines with FMV promoter (pMON996) versus CaMVe35S lines (pMON899), FIG. 14) was “better than any of the scores from lines containing the CaMVe35S promoter (pMON899)”, the “level of glyphosate tolerance” value (transgenic canola lines; transgenic lines containing pMON899 (CaMVe35S promoter) used in FIG. 14) was “highest levels of glyphosate tolerance among 150 lines previously tested” and the “callus growth, control disks versus transformed tissue” value (petunia leaf disks; 0.1 mM glyphosate (sodium salt), within 10 days, control pMON505, transformed pMON546) was “little detectable difference between the control disks and the transformed tissue”. For the same molecule, the callus growth (petunia leaf disks; control disks (pMON505), 0.25 mM glyphosate (sodium salt)) was “very little growth of callus from control disks”, the callus growth (petunia leaf disks; control disks (pMON505), 0.5 mM glyphosate (sodium salt)) was “no callus growth from the control disks” and the callus growth (petunia leaf disks; transformed disks (pMON546, CaMV/EPSPS), 0.5 mM glyphosate (sodium salt)) was “a significant number of calli grew from the transformed disks”. The callus growth (petunia leaf disks; transformed tissue (pMON546, CaMV/EPSPS), 0.25 mM glyphosate (sodium salt)) was “substantial growth of transformed tissue occurred”.
